Patent US20250295628A1 (priority 2022, published 2025)

What was measured:
[1] = Solid stability: main component content over time under storage conditions (Example 15); assay type: physicochemical
[2] = Compatibility stability and pH of 2 mg/ml solutions in normal saline and 5% glucose injection at room temperature (Example 15); assay type: physicochemical; conditions: for main component content in solution: 2 mg/ml, room temperature
[3] = Acute toxicity in SD rats (Example 16); assay type: in vivo; conditions: both sexes, rat, in vivo, 3 g/kg, single intravenous injection, read-out: rat MTD, injected
Excerpt: (§1) SPF-grade SD rats, 180˜220 g, 70 males and 70 females, were divided into 7 groups, 10 males and 10 females in each group. Rats in group 1 were intravenous injected with 3 g/kg of D3; rats in group 2 were intravenous injected with 3 g/kg of composition 3; rats in group 3 were intravenous injected with 3 g/kg of composition 3-powder injection; rats in group 4 were orally administrated with 5 g/kg of composition 3-enteric-coated granule; rats in group 5 were orally administrated with 5 g/kg of composition 3-enteric-coated capsule; rats in group 6 were orally administrated with 5 g/kg of composition 3-enteric-coated sustained-release capsule; group 7 was a blank group. After administration, the poisoning situation was observed every day, and no obvious poisoning reaction was found.

SD rats = experiment: Acute toxicity in SD rats (Example 16); assay type: in vivo; conditions: intravenous 3 g/kg, observed 14 days
Excerpt: as §1

[4] = Acute toxicity in beagles (Example 16); assay type: in vivo; conditions: both sexes, beagle, dog, in vivo, 2 g/kg, single intravenous injection, read-out: dog MTD, injected
Excerpt: (§2) Ordinary grade beagles 8˜10 kg, 70 males and 70 females, were divided into 7 groups, 10 males and 10 females in each group. Beagles in group 1 were intravenous injected with 2 g/kg of D3; beagles in group 2 were intravenous injected with 2 g/kg of composition 3; beagles in group 3 were intravenous injected with 2 g/kg of composition 3-powder injection; beagles in group 4 were orally administrated with 5 g/kg of composition 3-enteric-coated granule; beagles in group 5 were orally administrated with 5 g/kg of composition 3-enteric-coated capsule; beagles in group 6 were orally administrated with 5 g/kg of composition 3-enteric-coated sustained-release capsule; group 7 was a blank group. After administration, the poisoning situation was observed every day, and no obvious poisoning reaction was found.

beagles = experiment: Acute toxicity in beagles (Example 16); assay type: in vivo; conditions: intravenous 2 g/kg, observed 14 days
Excerpt: as §2

[5] = tested on: chronic cadmium poisoning model rabbits; experiment: Cadmium-removing effect by intravenous drip in chronic cadmium poisoning rabbits (Example 18); assay type: in vivo, New Zealand rabbits; conditions: for Urine β2-microglobulin values: after four weeks of administration
Excerpt: 205 male New Zealand rabbits, 1.8˜2.2 kg, were randomly divided into a blank control group with 25 rabbits and chronic cadmium poisoning groups with a total of 180 rabbits. The model rabbits were ear margin intravenous injected with a mixed solution containing 1.5 μmol/kg CdCl2 and 30 μmol/kg thioethanol (ME) according to weight, once/d for continuous 5 days, and observed for 35 days. After 35 days, qualified rabbits were selected according to weight, including 18 rabbits in the blank group and 162 rabbits in the poisoning group. The 162 rabbits in the poisoning group were randomly divided into a model group, D3 high-dose group, D3 low-dose group, compound 3B high-dose group, compound 3B low-dose group, composition 3 high-dose group, composition 3 low-dose group, composition 3-powder injection high-dose group, composition 3-powder injection low-dose group, with 18 rabbits in each group. Rabbits in the mode group and the blank group were administered by intravenous drip with the same volume of normal saline, with a rate of 30 drops/min for a dripping time of about 2 h, 1 time/d, 5 d/week. After administration on the last day of week 1, week 2 and week 4, the urine of 0 h˜6 h and the urine of 7 h˜24 h of rabbits were respectively collected; the content of cadmium in blood, urine and kidney, and the cadmium-removing rate from blood and kidney were determined, and the results are shown in Table 6.

[6] = Solid stability of compositions 1-11 and compounds 1A-11A: main component content over time under different conditions (Example 37, Table 32); assay type: physicochemical
Experimental: Compositions 1-11 and compounds 1A-11A were placed at environments of −25° C., 5±3° C., 25±2° C./60±5% RH, 40±2° C./75±5% RH, 60° C. for 0 d, 5 d and 10 d (d refers to day), respectively, and changes of the main component content (the main component content of 0 day was converted to 100%) were measured, the results are shown in Table 32.

[7] = 1 w of treatment, high-dose group (D3 433, composition 3 and composition 3-preparation 108 mg/kg)
[8] = 1 w of treatment, high-dose group (D3 433, compound 3B 83.5, composition 3 and composition 3-preparation 108 mg/kg)
[9] = 1 w of treatment, low-dose group (D3 108, composition 3 and composition 3-preparation 27 mg/kg)
[10] = 1 w of treatment, low-dose group (D3 108, compound 3B 21, composition 3 and composition 3-preparation 27 mg/kg)
[11] = 2 w of treatment, high-dose group (D3 433, composition 3 and composition 3-preparation 108 mg/kg)
[12] = 2 w of treatment, high-dose group (D3 433, compound 3B 83.5, composition 3 and composition 3-preparation 108 mg/kg)
[13] = 2 w of treatment, low-dose group (D3 108, composition 3 and composition 3-preparation 27 mg/kg)
[14] = 2 w of treatment, low-dose group (D3 108, compound 3B 21, composition 3 and composition 3-preparation 27 mg/kg)
[15] = 4 w of treatment, high-dose group (D3 433, composition 3 and composition 3-preparation 108 mg/kg)
[16] = 4 w of treatment, high-dose group (D3 433, compound 3B 83.5, composition 3 and composition 3-preparation 108 mg/kg)
[17] = 4 w of treatment, low-dose group (D3 108, composition 3 and composition 3-preparation 27 mg/kg)
[18] = 4 w of treatment, low-dose group (D3 108, compound 3B 21, composition 3 and composition 3-preparation 27 mg/kg)

CSCCC(C(=O)[O-])N(CC(O)C(O)C(O)C(O)CO)C(=S)[S][Na].[Na+] [Composition D3, N-(2,3,4,5,6-pentahydroxyhexyl)-(N-disubstitutedsodium formate)-L-sodium methionate]
main component content ([1]; 5 ± 3° C., 0 d (converted to 100%)): 100%
main component content ([1]; 5 ± 3° C., 5 d): 97.3%
main component content ([1]; 5 ± 3° C., 10 d): 96.5%
main component content ([1]; 5 ± 3° C., 30 d): 90.8%
decrease of the main component content / stability on 180 d ([1]; 5±3° C., 180 d): about 18.8%
main component content ([1]; 5±3° C., 180 d): 81.2%
main component content ([1]; 25 ± 2° C./60 ± 5% RH, 0 d (converted to 100%)): 100%
main component content ([1]; 25 ± 2° C./60 ± 5% RH, 5 d): 95.1%
main component content ([1]; 25 ± 2° C./60 ± 5% RH, 10 d): 90.3%
main component content ([1]; 25 ± 2° C./60 ± 5% RH, 30 d): 84.6%
main component content ([1]; 25 ± 2° C./60 ± 5% RH, 180 d): 64.2%
main component content ([1]; 40 ± 2° C./75 ± 5% RH, 0 d (converted to 100%)): 100%
main component content ([1]; 40 ± 2° C./75 ± 5% RH, 5 d): 91.2%
main component content ([1]; 40 ± 2° C./75 ± 5% RH, 10 d): 84.3%
main component content ([1]; 40 ± 2° C./75 ± 5% RH, 30 d): 60.3%
main component content ([1]; −25° C., 0 d (converted to 100%)): 100%
main component content ([1]; −25° C., 5 d): 101.2%
main component content ([1]; −25° C., 10 d): 99.8%
main component content ([1]; −25° C., 30 d): 100.7%
main component content ([1]; −25° C., 180 d): 99.9%
pH ([2]; 2 mg/ml solution in 5% glucose injection): 9.7
pH ([2]; 2 mg/ml solution in normal saline): 9.7
main component content in solution ([2]; 5% glucose injection, 0 h (converted to 100%)): 100%
main component content in solution ([2]; 5% glucose injection, 1 h): 90%
main component content in solution ([2]; 5% glucose injection, 2 h): 81%
main component content in solution ([2]; 5% glucose injection, 4 h): 69%
main component content in solution ([2]; 5% glucose injection, 8 h): 54%
main component content in solution ([2]; normal saline, 0 h (converted to 100%)): 100%
main component content in solution ([2]; normal saline, 1 h): 95%
main component content in solution ([2]; normal saline, 2 h): 83%
main component content in solution ([2]; normal saline, 4 h): 73%
main component content in solution ([2]; normal saline, 8 h): 71%
MTD at 14 d [3]: > 3000 mg/kg
acute toxicity observation (SD rats): no obvious toxicity
MTD at 14 d [4]: > 2000 mg/kg
acute toxicity observation (beagles): no obvious toxicity
Removing rate (cadmium in blood) [5, 7]: 13.9%
Removing rate (cadmium in kidney) [5, 7]: 47.8%
Cadmium in blood [5, 8]: 89.45 ± 13.31 µg/L
Cadmium in kidney [5, 8]: 6.53 ± 2.16 µg/L
Removing rate (cadmium in blood) [5, 9]: 6.8%
Removing rate (cadmium in kidney) [5, 9]: 39.7%
Cadmium in blood [5, 10]: 96.60 ± 6.31 µg/L
Cadmium in kidney [5, 10]: 7.42 ± 3.83 µg/L
Removing rate (cadmium in blood) [5, 11]: 16.9%
Removing rate (cadmium in kidney) [5, 11]: 77.0%
Cadmium in blood [5, 12]: 61.39 ± 12.47 µg/L
Cadmium in kidney [5, 12]: 3.36 ± 1.08 µg/L
Removing rate (cadmium in blood) [5, 13]: 0.07%
Removing rate (cadmium in kidney) [5, 13]: 54.0%
Cadmium in blood [5, 14]: 68.54 ± 13.39 µg/L
Cadmium in kidney [5, 14]: 5.92 ± 2.01 µg/L
Removing rate (cadmium in blood) [5, 15]: 35.8%
Removing rate (cadmium in kidney) [5, 15]: 91.7%
Cadmium in blood [5, 16]: 17.67 ± 6.84 µg/L
Cadmium in kidney [5, 16]: 1.85 ± 0.52 µg/L
Removing rate (cadmium in blood) [5, 17]: 11.1%
Removing rate (cadmium in kidney) [5, 17]: 75.8%
Cadmium in blood [5, 18]: 24.34 ± 8.38 µg/L
Cadmium in kidney [5, 18]: 3.93 ± 1.16 µg/L
Urine β2-microglobulin values ([5]; high-dose group (D3 433, compound 3B 83.5, composition 3 and composition 3-preparation 108 mg/kg)): 161.64 ± 45.18 ng/L
Urine β2-microglobulin values ([5]; low-dose group (D3 108, compound 3B 21, composition 3 and composition 3-preparation 27 mg/kg)): 197.15 ± 31.66 ng/L
main component content ([6]; 5 ± 3° C., 0 d (0 day content converted to 100%)): 100%
main component content ([6]; 5 ± 3° C., 5 d): 97.3%
main component content ([6]; 5 ± 3° C., 10 d): 96.5%
main component content ([6]; 25 ± 2° C./60 ± 5% RH, 0 d (0 day content converted to 100%)): 100%
main component content ([6]; 25 ± 2° C./60 ± 5% RH, 5 d): 95.1%
main component content ([6]; 25 ± 2° C./60 ± 5% RH, 10 d): 90.3%
main component content ([6]; 40 ± 2° C./75 ± 5% RH, 0 d (0 day content converted to 100%)): 100%
main component content ([6]; 40 ± 2° C./75 ± 5% RH, 5 d): 91.2%
main component content ([6]; 40 ± 2° C./75 ± 5% RH, 10 d): 84.2%
main component content ([6]; 60° C., 0 d (0 day content converted to 100%)): 100%
main component content ([6]; 60° C., 5 d): 65.6%
main component content ([6]; 60° C., 10 d): 64.2%
main component content ([6]; −25° C., 0 d (0 day content converted to 100%)): 100%
main component content ([6]; −25° C., 5 d): 101.2%
main component content ([6]; −25° C., 10 d): 99.8%
